Measured values taken from patent US8524738B2, “Quinolinones and quinoxalinones as antibacterial composition” (Toyama Chemical Co., Ltd., priority 2005, dated 2013).
In brackets after ≈: the same amount, converted by molar mass. Structures can show the parent of a compound that is named as a salt.

What follows are molecules tested on Staphylococcus aureus (S. aureus FDA209P) (assay: Sensitivity Test 1: antibacterial activity (MIC) by micro-dilution method). Details: FDA209P.
Type: cell-based
Method: Test compounds were initially dissolved in dimethylsulfoxide. Antibacterial activities (MICs) of the same compounds were determined by the micro-dilution method as recommended by the Japanese Society of Chemotherapy.
Staphylococcus aureus (S. aureus FDA209P) was used as the test organism. The bacterial cells were grown overnight at 35° C. on Mueller-Hinton agar (MHA) plates. The bacterial cells were then suspended in sterile saline and adjusted to the turbidity of a 0.5 McFarland standard. The inoculum was prepared by 10-fold dilution of this suspension. Approximately 0.005 mL aliquots of the inoculum prepared above were subsequently inoculated into Cation-adjusted Mueller-Hinton broth (CAMHB, 100 μL/well) including the test compounds for overnight incubation at 35° C.

Row | SMILES | MIC [µg/mL]
1 | Nc1cc(=O)n(CCN2CCC(NCc3ccc4c(c3)OCCO4)CC2)c2ccccc12 [Example 97, 4-amino-1-(2-(4-((2,3-dihydro-1,4-benzodioxin-6-ylmethyl)amino)piperidin-1-yl)ethyl)-quinolin-2(1H)-one hydrochloride] | 0.125
2 | CCOc1ccc2c(C)cc(=O)n(CCN3CCC(NCc4ccc5c(c4)OCCO5)CC3)c2c1 [Example 104, 1-(2-(4-((2,3-dihydro-1,4-benzodioxin-6-ylmethyl)amino)piperidin-1-yl)ethyl)-7-ethoxy-4-methylquinolin-2(1H)-one hydrochloride] | 0.0625
3 | Cc1cc(=O)n(CCN2CCC(NCc3ccc4c(c3)OCCO4)CC2)c2cc(Cl)ccc12 [Example 107, 7-chloro-1-(2-(4-((2,3-dihydro-1,4-benzodioxin-6-ylmethyl)amino)piperidin-1-yl)ethyl)-4-methylquinolin-2(1H)-one hydrochloride] | 0.0313
4 | Cc1cc(=O)n(CCN2CCC(NCc3ccc4c(c3)OCCO4)CC2)c2cc(F)ccc12 [Example 109, 1-(2-(4-((2,3-dihydro-1,4-benzodioxin-6-ylmethyl)amino)piperidin-1-yl)ethyl)-7-fluoro-4-methylquinolin-2(1H)-one hydrochloride] | 0.125
5 | Cc1cc(=O)n(CCN2CCC(NCc3ccc4c(c3)OCCO4)CC2)c2cc(-n3ccnc3)ccc12 [Example 125, 1-(2-(4-((2,3-dihydro-1,4-benzodioxin-6-ylmethyl)amino)piperidin-1-yl)ethyl)-7-(1H-imidazol-1-yl)-4-methylquinolin-2(1H)-one hydrochloride] | 0.0313
6 | Cc1cc(=O)n(CCN2CCC(NCc3ccc4c(c3)OCCO4)CC2)c2cc(OC(F)F)ccc12 [Example 127, 7-(difluoromethoxy)-1-(2-(4-((2,3-dihydro-1,4-benzodioxin-6-ylmethyl)amino)piperidin-1-yl)ethyl)-4-methylquinolin-2(1H)-one hydrochloride] | 0.0625
7 | Cc1cc(=O)n(CCN2CCC(NCc3ccc4c(c3)OCCO4)CC2)c2cc(OC3CC3)ccc12 [Example 129, 7-cyclopropoxy-1-(2-(4-((2,3-dihydro-1,4-benzodioxin-6-ylmethyl)amino)piperidin-1-yl)ethyl)-4-methylquinolin-2(1H)-one hydrochloride] | 0.0625
8 | CNC(=O)c1cc(OC)cc2c1ccc(=O)n2CCN1CCC(NCc2ccc3c(c2)OCCO3)CC1 [Example 186, 1-(2-(4-((2,3-dihydro-1,4-benzodioxin-6-ylmethyl)amino)piperidin-1-yl)ethyl)-7-methoxy-N-methyl-2-oxo-1,2-dihydroquinoline-5-carboxamide hydrochloride] | 0.25
9 | COc1cc(CO)c2ccc(=O)n(CCN3CCC(NCc4ccc5c(c4)OCCO5)CC3)c2c1 [Example 189, 1-(2-(4-((2,3-dihydro-1,4-benzodioxin-6-ylmethyl)amino)piperidin-1-yl)ethyl)-5-hydroxymethyl-7-methoxyquinolin-2(1H)-one hydrochloride] | 0.0625
10 | COc1cccc2ccc(=O)n(CCN3CCC(NCc4ccc5c(c4)OCCO5)CC3)c12 [Example 244, 1-(2-(4-((2,3-dihydro-1,4-benzodioxin-6-ylmethyl)amino)piperidin-1-yl)ethyl)-8-methoxyquinolin-2(1H)-one hydrochloride] | 0.0625
11 | CCc1ccc(CNC2CCN(CCn3c(=O)cc(C(=O)NC)c4ccc(OC)cc43)CC2)cc1 [Example 339, 1-(2-(4-(4-ethylbenzylamino)piperidin-1-yl)ethyl)-7-methoxy-N-methyl-2-oxo-1,2-dihydroquinoline-4-carboxamide hydrochloride] | 0.0625
12 | CNC(=O)c1cc(=O)n(CCN2CCC(NCc3cc4sccc4s3)CC2)c2cc(OC)ccc12 [Example 342, 7-methoxy-N-methyl-2-oxo-1-(2-(4-((thieno[3,2-b]thiophen-2-yl)methylamino)piperidin-1-yl)ethyl)-1,2-dihydroquinoline-4-carboxamide hydrochloride] | 0.0313
13 | CNC(=O)c1cc(=O)n(CCN2CCC(NCc3cc4ccccc4s3)CC2)c2cc(OC)ccc12 [Example 343, 1-(2-(4-((benzo[b]thiophen-2-yl)methylamino)piperidin-1-yl)ethyl)-7-methoxy-N-methyl-2-oxo-1,2-dihydroquinoline-4-carboxamide hydrochloride] | 0.125
14 | CNC(=O)c1cc(=O)n(CCN2CCC(NCC#Cc3ccccc3)CC2)c2cc(OC)ccc12 [Example 344, 7-methoxy-N-methyl-2-oxo-1-(2-(4-(3-phenyl-2-propyn-1-ylamino)piperidin-1-yl)ethyl)-1,2-dihydroquinoline-4-carboxamide hydrochloride] | 0.125
15 | CCc1ccc(CNC2CCN(CCn3c(=O)cnc4ccc(F)cc43)CC2)cc1 [Example 347, 1-(2-(4-(4-ethylbenzylamino)piperidin-1-yl)ethyl)-7-fluoroquinoxalin-2(1H)-one hydrochloride] | 0.0156
16 | O=c1cnc2ccc(F)cc2n1CCN1CCC(NCc2cc3ccccc3s2)CC1 [Example 349, 1-(2-(4-((benzo[b]thiophen-2-yl)methylamino)piperidin-1-yl)ethyl)-7-fluoroquinoxalin-2(1H)-one hydrochloride] | 0.0156
17 | O=c1cnc2ccc(F)cc2n1CCN1CCC(NCc2cc(-c3cccs3)on2)CC1 [Example 351, 7-fluoro-1-(2-(4-((5-(thiophen-2-yl)isoxazol-3-yl)methylamino)piperidin-1-yl)ethyl)quinoxalin-2(1H)-one hydrochloride] | 0.0078
18 | CCc1ccc(CNC2CCN(CCn3c(=O)cnc4ccc(OC)cc43)CC2)cc1 [Example 353, 1-(2-(4-(4-ethylbenzylamino)piperidin-1-yl)ethyl)-7-methoxyquinoxalin-2(1H)-one hydrochloride] | 0.0156
19 | COc1ccc2ncc(=O)n(CCN3CCC(NCc4ccc(C)c(F)c4)CC3)c2c1 [Example 354, 1-(2-(4-(3-fluoro-4-methylbenzylamino)piperidin-1-yl)ethyl)-7-methoxyquinoxalin-2(1H)-one hydrochloride] | 0.0078
20 | COc1ccc2ncc(=O)n(CCN3CCC(NCc4nc5c(cc4Cl)SCC(=O)N5)CC3)c2c1 [Example 355, 1-(2-(4-((7-chloro-3-oxo-3,4-dihydro-2H-pyrido[3,2-b][1,4]thiazin-6-yl)methylamino)piperidin-1-yl)ethyl)-7-methoxyquinoxalin-2(1H)-one hydrochloride] | 0.0156
21 | COc1ccc2ncc(=O)n(CCN3CCC(NCc4ccc5ccccc5c4)CC3)c2c1 [Example 356, 7-methoxy-1-(2-(4-((naphthalen-2-yl)methylamino)piperidin-1-yl)ethyl)quinoxalin-2(1H)-one hydrochloride] | 0.0156
22 | COc1ccc2ncc(=O)n(CCN3CCC(NCc4cc5ccccc5s4)CC3)c2c1 [Example 357, 1-(2-(4-((benzo[b]thiophen-2-yl)methylamino)piperidin-1-yl)ethyl)-7-methoxyquinoxalin-2(1H)-one hydrochloride] | 0.0156
23 | O=c1cnc2ccc(Br)cc2n1CCN1CCC(NCc2ccc3c(c2)OCCO3)CC1 [Example 363, 1-(2-(4-((2,3-dihydro-1,4-benzodioxin-6-ylmethyl)amino)piperidin-1-yl)ethyl)-7-bromoquinoxalin-2(1H)-one hydrochloride] | 0.0313
24 | O=C1CSc2cc(Cl)c(CNC3CCN(CCn4c(=O)cnc5ccc(F)cc54)CC3)nc2N1 [Example 368, 1-(2-(4-((7-chloro-3-oxo-3,4-dihydro-2H-pyrido[3,2-b][1,4]thiazin-6-yl)methylamino)piperidin-1-yl)ethyl)-7-fluoroquinoxalin-2(1H)-one hydrochloride] | 0.0156
25 | COc1ccc2ncc(=O)n(CCN3CCC(NCc4ccc5c(c4)SCCS5)CC3)c2c1 [Example 370, 1-(2-(4-((2,3-dihydro-1,4-benzodithiin-6-ylmethyl)amino)piperidin-1-yl)ethyl)-7-methoxyquinoxalin-2(1H)-one hydrochloride] | 0.0039
26 | COc1ccc2ncc(=O)n(CCN3CCC(NCc4cc5c(cn4)OCCCO5)CC3)c2c1 [Example 375, hydrochloride] | 0.0156
27 | COc1ccc2ncc(=O)n(CCN3CCC(NCc4ccc5c(n4)NC(=O)CO5)CC3)c2c1 [Example 400, 7-methoxy-1-(2-(4-((3-oxo-3,4-dihydro-2H-pyrido[3,2-b][1,4]oxazin-6-yl)methylamino)piperidin-1-yl)ethyl)quinoxalin-2(1H)-one hydrochloride] | 0.0156

Same assay, conditions: S. aureus FDA209P, CAMHB, overnight incubation at 35° C., lowest concentration with virtually no growth, read-out: MIC

Row | MIC [µg/mL] | SMILES
28 | 0.125 (≈ 0.247 µM) | COc1ccc2c(C)cc(=O)n(CCC3(C(N)=O)CCC(NCc4ccc5c(c4)OCCO5)CC3)c2c1 (stereo not shown) [Example 155, 4-((2,3-dihydro-1,4-benzodioxin-6-ylmethyl)amino)-1-(2-(7-methoxy-4-methyl-2-oxoquinolin-1(2H)-yl)ethyl)cyclohexanecarboxamide]
29 | 0.0625 (≈ 0.117 µM) | CNC(=O)c1cc(=O)n(CCN2CCC(NCc3ccc(C(F)(F)F)c(F)c3)CC2)c2cc(OC)ccc12 [Example 182, 1-(2-(4-((3-fluoro-4-(trifluoromethyl)benzyl)amino)piperidin-1-yl)ethyl)-7-methoxy-N-methyl-2-oxo-1,2-dihydroquinoline-4-carboxamide]
30 | 0.0156 | O=c1cnc2ccc(F)cc2n1CCN1CCC(NCc2ccc3c(c2)OCCO3)CC1 [Example 346, (1-(2-(4-((2,3-dihydro-1,4-benzodioxin-6-ylmethyl)amino)piperidin-1-yl)ethyl)-7-fluoroquinoxalin-2(1H)-one hydrochloride]
31 | 0.0078 | COc1ccc2ncc(=O)n(CCN3CCC(NCc4cc5sccc5s4)CC3)c2c1 [Example 360, 1-(2-(4-(((thieno[3,2-b]thiophen-2-yl)methylamino)piperidin-1-yl)ethyl)-7-methoxyquinoxalin-2(1H)-one hydrochloride]
